Data: the OPERA property sets (Mansouri et al. 2018)

Row | SMILES | logP
1 | OC(c1ccccc1)(c1ccccc1)c1ccccc1 | 3.68
2 | COc1ccc(-c2nc3ccncc3[nH]2)c(OC)c1 | 2.56
3 | COc1cc(S(C)=O)ccc1-c1cn2ccncc2n1 (stereo not drawn) | 1.11
4 | N=c1ccn2c(n1)O[C@H]1[C@H](O)[C@@H](CO)O[C@H]12 | -2.37
5 | CSc1nccc(=O)[nH]1 | 0.22
6 | CC(O)COc1cccc2oc(C(=O)O)cc(=O)c12 (stereo not drawn) | 1.32
7 | O=C1/C(=C2\Nc3ccccc3C2=O)Nc2ccccc21 | 3.72
8 | CSc1ccc(C=NN=C(N)NO)cc1 | 0.32
9 | CN/C(=N\C#N)NCCSCc1csc(N=C(N)N)n1 | 0.68
10 | COc1cc(C(=O)C=CN2CC=CC2)cc(OC)c1OC | 1.77
11 | CC(=O)Nc1ccc(S(C)(=O)=O)cc1 | 0.58
12 | ON=C(c1ccccc1)c1ccccc1 | 3.2
13 | COc1cccc(Cc2cnc(N)nc2N)c1OC | 1.62
14 | CC(=O)NN=CCCc1ccccc1 | 1.8
15 | O=C(NC(CO)C(O)c1ccc(NC(=O)C2CC2)cc1)C(Cl)Cl (stereo not drawn) | 0.75
16 | CN(C(=O)CCSC#N)c1ccc(S(=O)(=O)N(C)C)cc1 | 0.84
17 | Cc1oc2ccccc2c(=O)c1C | 2.31
18 | Cn1c(SCC2=C(C(=O)O)N3C(=O)C(NC(=O)Cc4cccs4)C3SC2)nnc(O)c1=O (stereo not drawn) | -0.52
19 | c1ccc(CSc2nnc[nH]2)cc1 | 1.45
20 | CSC(=O)Nc1ccccc1 | 2.4
21 | O=C(Cc1ccccc1)Nc1ccc(Cl)c(Cl)c1 | 4.47
22 | CN(C(=O)CCO)c1ccc(S(=O)(=O)N(C)C)cc1 | -0.26

Row | SMILES | logP
23 | S=C=Nc1cccc(Br)c1 | 4.12
24 | Cc1c(-c2ccccc2)oc2ccccc2c1=O | 3.92
25 | O=C1NC(c2cccc3ccccc23)Nc2ccccc21 (stereo not drawn) | 2.96
26 | COc1cc(C=NO)ccc1OCCOC(=O)c1ccccc1OC | 2.84
27 | CC(=O)OC[C@@H](OC(C)=O)[C@@H](OC(C)=O)[C@H](OC(C)=O)[C@H](C=O)OC(C)=O | 0.63
28 | COC1OC(COC(C)=O)C(OC(C)=O)C(NC(=O)N(CCCl)N=O)C1OC(C)=O (stereo not drawn) | 0.67
29 | COc1ncccn1 | 0.23
30 | Cc1[nH]c(=O)[nH]c(=O)c1N(CCF)CCCl | 0.85
31 | COc1ccc(C(C)=O)c(N)c1 | 1.76
32 | Cn1cnc2ccccc2c1=O | 0.69
33 | N#CCC(=O)Nc1ccc(Cl)c(Cl)c1 | 2.72
34 | CC1(C)N=C(N)N=C(N)N1c1cccc([N+](=O)[O-])c1 | 0.06
35 | C=CCN(C)N=Nc1ccc(C(N)=O)cc1 | 2.09
36 | COc1nnccc1N(C)C | 0.9
37 | COc1cc(C=O)ccc1OCCOC(=O)c1ccccc1Cl | 3.21
38 | CNC(=S)NCC(F)(F)C(F)(F)C(F)(F)F | 1.99
39 | COc1cc(C=NO)ccc1OCCOC(=O)c1ccccc1 | 2.94
40 | NN=C(c1ccccc1)c1ccccc1 | 2.79
41 | O=c1cn[nH]c(=O)[nH]1 | -0.59
42 | C[n+]1c2cc(N)ccc2cc2ccc(N)cc21.[Cl-] | -1.78
43 | CC(C)CC(CC(C)C)OC(=O)c1ccc(NC(=O)N(C)C)cc1Cl | 5.15
44 | CC1(C)N=C(N)N=C(N)N1c1ccc(OCC(=O)N2CCOCC2)cc1 | -1.18

Row | SMILES | logP
45 | COc1cc(Cc2cnc(N)nc2N)cc(OC)c1N(C)C | 1.51
46 | CCCCC1OC(=O)c2cc(N(CCO)CCO)ccc21 (stereo not drawn) | 1.34
47 | CC(=O)Nc1cccc(OCc2cccc(N3C(N)=NC(N)=NC3(C)C)c2)c1 | 1.15
48 | COC(=O)CCC(=O)N(C)c1ccc(S(=O)(=O)N(C)C)cc1 | 0.43
49 | CC(=O)Nc1cccc(C#N)c1 | 1.2
50 | COc1ccc(-c2nc3ccncc3[nH]2)c(OCCCCl)c1 | 3.53
51 | CCCCCCCCNC(N)=NNC(=O)Nc1ccc(Cl)cc1 | 4.35
52 | CCCCOc1ccnc(C=CC2=CC([N+](=O)[O-])O2)n1 (stereo not drawn) | 2.04
53 | CC(=O)NC1CCSC1=O (stereo not drawn) | -0.35
54 | CCOC(CCC#N)OCC | 0.75
55 | Cc1cccc(C)c1NC(=O)c1cccc(CN2CCCC2)c1 | 3.1
56 | CSc1ccc(C=NN=C(N)NN)cc1 | 1.35
57 | CCOC(CP(=O)(OCC)OCC)OCC | 0.69
58 | CCCc1ccc2c(c1)C(=O)c1ccc(NC(C)=O)cc1S2(=O)=O | 3.51
59 | C=CCn1c(=O)c(N(C)C)c(C)n(-c2ccccc2)c1=O | 1.98
60 | C[N+](C)(C)Cc1cccc(C(F)(F)F)c1.[Br-] | -1.35
61 | COc1cc(C)c2c(c1OC)-c1ccc(SC)c(=O)cc1C(NC1OCC(O)C(O)C1O)CC2 (stereo not drawn) | 1.4
62 | CCCCCCC1OC(=O)c2cc(N)ccc21 (stereo not drawn) | 3.65
63 | O=C(Nc1ccc(Cl)c(Cl)c1)C(F)F | 3.18
64 | CCOC(=O)c1cncn1C(C)c1ccccc1 (stereo not drawn) | 3.05
65 | Cc1nnc(SCc2ccccc2)o1 | 1.74
66 | CSc1ccccc1NC(C)=O | 1.53

Row | SMILES | logP
67 | CNC(=S)NC12CC3CC(CC(C3)C1)C2 | 2.67
68 | Cc1nccnn1 | -1.31
69 | CC(=O)NC1=CC(=O)N(c2ccc(Cl)cc2)C1=O | 0.75
70 | NC1=NC(C(F)(F)F)(C(F)(F)F)NC1(C(F)(F)F)C(F)(F)F | 3.35
71 | CC(=O)OCCC(=O)N(C)c1ccc(S(=O)(=O)N(C)C)cc1 | 0.26
72 | Cc1cccc(C)c1NC(=O)c1cccc(CN2CCOCC2)c1 | 2.14
73 | COc1cccc(CC(C)N)c1OC (stereo not drawn) | 1.49
74 | O=C(O)c1cc(=O)c2cc3c(cc2o1)CCCC3 | 3.4
75 | c1ccc(Cc2nn[nH]n2)cc1 | 1.36
76 | CCN(CC)c1c(C)n(C)c(=O)n(-c2ccccc2)c1=O | 2.11
77 | CCOCCOC(=O)C(C#N)=C(CC)Nc1ccc([N+](=O)[O-])cc1 | 2.6
78 | O=C(O)c1cc(=O)c2c(OCC(O)COc3cccc4oc(C(=O)O)cc(=O)c34)cccc2o1 | 1.92
79 | CC(=O)N(CC(=O)Nc1ccccc1)c1ccccc1 | 2.01
80 | CN(C)CCC1CN(C)C(=S)c2cccnc2O1 (stereo not drawn) | 1.08
81 | CCC1OC(=O)C(C)C(OC2CC(C)(OC)C(O)C(C)O2)C(C)C(OC2OC(C)CC(N(C)C)C2O)C(C)(O)CC(C)C(=O)C(C)C(OC(C)=O)C1C (stereo not drawn) | 3.32
82 | COc1cc(C=NO)ccc1OCCOC(=O)COc1ccccc1 | 2.1
83 | S=c1cc[nH]cc1 | 0.2
84 | CC(=O)Nc1ccccc1C#N | 0.57
85 | O=c1cc(-c2ccccc2)oc2cc(O)ccc12 | 3.62
86 | CCC(=O)OCCOc1ccc(C=O)cc1OC | 1.33
87 | CCC(C)NC(=O)C(=Cc1ccccc1)Sc1ccccc1 (stereo not drawn) | 4.36
88 | c1ccc(-c2nnco2)cc1 | 1.31
